Active and inactive are the calls of the source. The rule behind the calls is not given here.
How the values were obtained:
[1] = target: Eukaryotic elongation factor 2 kinase (Homo sapiens) (UniProt O00418); test: Inhibition of recombinant human full-length GST-tagged EEF2K expressed in E. coli at 2 uM using Ser/Thr 24 as substrate measured after 1 hr by Z'-LYTE assay relative to control
[2] = Inhibition of recombinant human GST-tagged ROCK1 (1-552 residues) expressed in insect cells at 2 uM using Ser/Thr 13 as substrate measured after 1 hr by Z'-LYTE assay relative to control; settings: Insect cell, condition cancer
[3] = target: Mitogen-activated protein kinase 10 (Homo sapiens) (UniProt P53779); test: Inhibition of recombinant human full length GST-tagged MAPK10 expressed in insect cells at 2 uM using Ser/Thr 04 as substrate measured after 1 hr by Z'-LYTE assay relative to control; settings: Insect cell
[4] = target: Mitogen-activated protein kinase kinase kinase 9 (Homo sapiens) (UniProt P80192); test: Inhibition of recombinant human GST-tagged MAP3K9 (1-500 residues) expressed in insect cells at 2 uM using Ser/Thr 07 as substrate measured after 1 hr by Z'-LYTE assay relative to control; settings: Insect cell
Mitogen-activated protein kinase kinase kinase 9 (Homo sapiens), sequence (P80192 whole entry, looked up, the tested form may be a part): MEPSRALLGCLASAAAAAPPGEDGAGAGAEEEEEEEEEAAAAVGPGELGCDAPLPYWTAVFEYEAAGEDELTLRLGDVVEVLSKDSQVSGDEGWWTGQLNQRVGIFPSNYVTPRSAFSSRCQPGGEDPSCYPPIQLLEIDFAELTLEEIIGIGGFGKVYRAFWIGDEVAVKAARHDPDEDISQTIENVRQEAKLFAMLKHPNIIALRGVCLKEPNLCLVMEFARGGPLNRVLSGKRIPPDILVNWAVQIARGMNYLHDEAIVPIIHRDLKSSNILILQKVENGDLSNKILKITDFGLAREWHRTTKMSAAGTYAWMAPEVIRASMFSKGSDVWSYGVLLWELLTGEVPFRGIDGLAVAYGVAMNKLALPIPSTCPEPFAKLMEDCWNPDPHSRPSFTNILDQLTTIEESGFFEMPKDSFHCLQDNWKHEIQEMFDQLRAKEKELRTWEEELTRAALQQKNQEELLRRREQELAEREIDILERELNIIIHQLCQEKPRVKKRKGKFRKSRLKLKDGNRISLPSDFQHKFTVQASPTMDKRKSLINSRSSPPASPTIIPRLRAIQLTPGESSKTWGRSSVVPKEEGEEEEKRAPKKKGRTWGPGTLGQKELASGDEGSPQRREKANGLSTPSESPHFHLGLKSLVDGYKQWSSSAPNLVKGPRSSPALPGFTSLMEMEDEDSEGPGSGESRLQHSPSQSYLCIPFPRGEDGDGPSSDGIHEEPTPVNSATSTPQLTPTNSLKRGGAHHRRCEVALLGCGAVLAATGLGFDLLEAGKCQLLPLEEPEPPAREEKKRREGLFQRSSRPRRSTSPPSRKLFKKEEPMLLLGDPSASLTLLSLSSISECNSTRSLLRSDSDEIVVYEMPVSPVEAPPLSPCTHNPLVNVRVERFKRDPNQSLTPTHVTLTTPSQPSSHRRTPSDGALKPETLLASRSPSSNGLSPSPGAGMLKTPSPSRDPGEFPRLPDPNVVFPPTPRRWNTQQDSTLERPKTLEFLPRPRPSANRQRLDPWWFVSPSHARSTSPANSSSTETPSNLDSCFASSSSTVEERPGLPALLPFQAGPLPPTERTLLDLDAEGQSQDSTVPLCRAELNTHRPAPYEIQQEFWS

[5] = target: Beta-adrenergic receptor kinase 1 (Homo sapiens) (UniProt P25098); test: Inhibition of recombinant human full-length His-tagged ADRBK1 expressed in insect cells at 2 uM using Ser/Thr 16 as substrate measured after 1 hr by Z'-LYTE assay relative to control; settings: Insect cell
[6] = test system: MDA-MB-361; test: Antitumor activity against human MDA-MB-361 cells xenografted in female nude mouse model assessed as induction in PARP cleavage at 50 mg/kg, po qd administered as 5 days on/2 days off regimen for 4 cycles by immunoblot analysis; type: functional, organism-based; settings: time 28.0 day
[7] = test system: MDA-MB-361; test: Inhibition of protein synthesis in human MDA-MB-361 cells at 1 micromol/L incubated for 3 hrs by [3H] methionine incorporation based scintillation counter analysis relative to control; type: functional; settings: MDA-MB-361, 3 h, dose 1 µmol/L
[8] = test system: PC3MM2; test: Antiproliferative activity against human PC3MM2 cells assessed as cell growth inhibition incubated for 24 hrs by MTS assay; type: functional, cell-based; settings: PC3MM2, 24 h
[9] = target: Dual specificity protein kinase CLK3 (Homo sapiens) (UniProt P49761); test: Inhibition of recombinant human full-length GST-tagged CLK3 expressed in insect cells at 2 uM using Ser/Thr 18 as substrate measured after 1 hr by Z'-LYTE assay relative to control; settings: Insect cell
Dual specificity protein kinase CLK3 (Homo sapiens), sequence (P49761 whole entry, looked up): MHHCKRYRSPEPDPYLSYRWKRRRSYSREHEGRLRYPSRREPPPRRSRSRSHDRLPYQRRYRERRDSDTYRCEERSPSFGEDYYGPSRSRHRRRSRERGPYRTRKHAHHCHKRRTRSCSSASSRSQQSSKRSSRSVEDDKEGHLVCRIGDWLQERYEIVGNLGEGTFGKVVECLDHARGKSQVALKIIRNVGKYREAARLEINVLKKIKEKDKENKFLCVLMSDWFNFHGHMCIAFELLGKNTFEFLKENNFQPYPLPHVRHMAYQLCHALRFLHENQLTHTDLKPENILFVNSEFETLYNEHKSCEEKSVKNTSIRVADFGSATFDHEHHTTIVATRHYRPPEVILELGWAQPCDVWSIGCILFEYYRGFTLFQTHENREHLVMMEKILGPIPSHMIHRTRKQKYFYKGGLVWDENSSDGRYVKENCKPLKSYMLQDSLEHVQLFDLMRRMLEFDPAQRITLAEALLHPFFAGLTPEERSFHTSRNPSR

[10] = target: Ribosomal protein S6 kinase alpha-4 (Homo sapiens) (UniProt O75676); test: Inhibition of recombinant human full length GST-tagged RPS6KA4 expressed in insect cells at 2 uM using Ser/Thr 01 as substrate measured after 1 hr by Z'-LYTE assay relative to control; settings: Insect cell
[11] = target: Ephrin type-B receptor 4 (Homo sapiens) (UniProt P54760); test: Inhibition of recombinant human His-tagged EPHB4 (561-987 residues) expressed in baculovirus expression system at 2 uM using Tyr 01 as substrate measured after 1 hr by Z'-LYTE assay relative to control
Ephrin type-B receptor 4 (Homo sapiens), sequence (P54760 whole entry, the tested form may be a part): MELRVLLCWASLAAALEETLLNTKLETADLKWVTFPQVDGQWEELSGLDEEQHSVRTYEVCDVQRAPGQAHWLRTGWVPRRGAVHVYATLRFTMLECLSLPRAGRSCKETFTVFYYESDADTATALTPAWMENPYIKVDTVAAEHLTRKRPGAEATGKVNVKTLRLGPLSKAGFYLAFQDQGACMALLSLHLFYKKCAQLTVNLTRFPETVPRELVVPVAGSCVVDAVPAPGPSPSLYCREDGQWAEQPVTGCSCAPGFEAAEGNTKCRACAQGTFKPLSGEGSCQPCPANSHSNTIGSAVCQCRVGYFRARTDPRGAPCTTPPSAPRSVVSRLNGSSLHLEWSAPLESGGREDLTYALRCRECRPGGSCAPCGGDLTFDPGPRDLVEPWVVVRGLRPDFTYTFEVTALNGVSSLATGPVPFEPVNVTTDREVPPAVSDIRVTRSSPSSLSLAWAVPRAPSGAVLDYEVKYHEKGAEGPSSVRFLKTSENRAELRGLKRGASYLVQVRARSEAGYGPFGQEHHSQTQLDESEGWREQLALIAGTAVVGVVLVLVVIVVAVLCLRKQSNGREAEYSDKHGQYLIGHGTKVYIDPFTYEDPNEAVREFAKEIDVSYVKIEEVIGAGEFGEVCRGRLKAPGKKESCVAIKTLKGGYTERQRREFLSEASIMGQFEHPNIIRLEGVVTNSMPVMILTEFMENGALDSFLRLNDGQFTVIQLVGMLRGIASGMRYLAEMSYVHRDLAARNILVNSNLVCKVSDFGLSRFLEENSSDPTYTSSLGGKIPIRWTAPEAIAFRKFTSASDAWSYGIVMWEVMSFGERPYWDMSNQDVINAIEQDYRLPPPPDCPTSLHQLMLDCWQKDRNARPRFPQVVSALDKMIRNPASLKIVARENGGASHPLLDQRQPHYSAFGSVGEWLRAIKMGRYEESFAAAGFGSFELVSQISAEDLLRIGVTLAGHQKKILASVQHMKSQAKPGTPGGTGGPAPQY

[12] = test system: 786-0; test: Antitumor activity against PTEN null-human 786-0 cells xenografted in female nude mouse model assessed as suppression in tumor growth at 25 mg/kg, po qd administered as 5 days on/2 days off regimen for 4 cycles relative to control; type: functional; settings: time 28 day
[13] = test system: MG-63; test: Antiproliferative activity against human MG-63 cells assessed as cell growth inhibition incubated for 24 hrs by MTS assay; type: functional, cell-based; settings: MG-63, 24 h
[14] = target: Serine/threonine-protein kinase 3 (Homo sapiens) (UniProt Q13188); test: Inhibition of recombinant human full length GST-tagged STK3 expressed in insect cells at 2 uM using Ser/Thr 07 as substrate measured after 1 hr by Z'-LYTE assay relative to control; settings: Insect cell
Serine/threonine-protein kinase 3 (Homo sapiens), sequence (Q13188 whole entry): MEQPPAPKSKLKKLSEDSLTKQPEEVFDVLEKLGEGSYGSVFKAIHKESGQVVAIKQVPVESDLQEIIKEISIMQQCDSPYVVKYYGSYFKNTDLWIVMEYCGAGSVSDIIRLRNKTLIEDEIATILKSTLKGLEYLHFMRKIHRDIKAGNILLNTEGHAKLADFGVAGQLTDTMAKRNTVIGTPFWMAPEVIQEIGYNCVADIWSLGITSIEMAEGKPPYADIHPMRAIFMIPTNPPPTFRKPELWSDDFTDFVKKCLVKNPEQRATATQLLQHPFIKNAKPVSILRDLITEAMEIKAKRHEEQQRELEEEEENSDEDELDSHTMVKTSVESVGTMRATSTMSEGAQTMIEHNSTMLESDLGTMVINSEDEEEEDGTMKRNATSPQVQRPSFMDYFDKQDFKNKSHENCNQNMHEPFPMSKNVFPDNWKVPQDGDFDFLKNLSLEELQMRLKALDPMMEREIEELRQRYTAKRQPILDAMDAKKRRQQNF

[15] = target: Mitogen-activated protein kinase 9 (Homo sapiens) (UniProt P45984); test: Inhibition of recombinant human full length His-tagged MAPK9 expressed in baculovirus expression system at 2 uM using Ser/Thr 04 as substrate measured after 1 hr by Z'-LYTE assay relative to control
Mitogen-activated protein kinase 9 (Homo sapiens), sequence (P45984 whole entry, looked up, the tested form may be a part): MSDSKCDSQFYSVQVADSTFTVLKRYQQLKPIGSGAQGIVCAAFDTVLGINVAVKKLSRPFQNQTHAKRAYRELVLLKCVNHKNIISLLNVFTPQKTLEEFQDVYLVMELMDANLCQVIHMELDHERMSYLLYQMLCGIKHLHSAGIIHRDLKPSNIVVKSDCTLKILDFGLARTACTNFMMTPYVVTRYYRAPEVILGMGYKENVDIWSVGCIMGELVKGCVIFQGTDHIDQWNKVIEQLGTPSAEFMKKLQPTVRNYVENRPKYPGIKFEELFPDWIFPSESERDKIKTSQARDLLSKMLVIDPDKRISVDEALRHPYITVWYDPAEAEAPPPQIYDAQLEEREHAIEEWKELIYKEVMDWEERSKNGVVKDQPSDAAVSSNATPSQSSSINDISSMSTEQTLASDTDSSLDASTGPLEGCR

[16] = target: Mitogen-activated protein kinase kinase kinase 8 (Homo sapiens) (UniProt P41279); test: Inhibition of recombinant human GST-tagged MAP3K8 (30-397 residues) expressed in insect cells at 2 uM using Ser/Thr 03 as substrate measured after 1 hr by Z'-LYTE assay relative to control; settings: Insect cell
[17] = target: Ephrin type-A receptor 1 (Homo sapiens) (UniProt P21709); test: Inhibition of recombinant human GST-tagged EPHA1 (568-976 residues) expressed in insect cells at 2 uM using Tyr 02 as substrate measured after 1 hr by Z'-LYTE assay relative to control; settings: Insect cell
[18] = target: mTORC1 (Homo sapiens) (UniProt P42345+Q8N122+Q9BVC4); settings: U-87 MG, dose 0.025-2 µmol/L, time 6.0 hrs
[19] = target: Tyrosine-protein kinase ITK/TSK (Homo sapiens) (UniProt Q08881); test: Inhibition of recombinant human full-length GST-tagged ITK expressed in insect cells at 2 uM using Tyr 01 as substrate measured after 1 hr by Z'-LYTE assay relative to control; settings: Insect cell
Tyrosine-protein kinase ITK/TSK (Homo sapiens), sequence (Q08881 whole entry): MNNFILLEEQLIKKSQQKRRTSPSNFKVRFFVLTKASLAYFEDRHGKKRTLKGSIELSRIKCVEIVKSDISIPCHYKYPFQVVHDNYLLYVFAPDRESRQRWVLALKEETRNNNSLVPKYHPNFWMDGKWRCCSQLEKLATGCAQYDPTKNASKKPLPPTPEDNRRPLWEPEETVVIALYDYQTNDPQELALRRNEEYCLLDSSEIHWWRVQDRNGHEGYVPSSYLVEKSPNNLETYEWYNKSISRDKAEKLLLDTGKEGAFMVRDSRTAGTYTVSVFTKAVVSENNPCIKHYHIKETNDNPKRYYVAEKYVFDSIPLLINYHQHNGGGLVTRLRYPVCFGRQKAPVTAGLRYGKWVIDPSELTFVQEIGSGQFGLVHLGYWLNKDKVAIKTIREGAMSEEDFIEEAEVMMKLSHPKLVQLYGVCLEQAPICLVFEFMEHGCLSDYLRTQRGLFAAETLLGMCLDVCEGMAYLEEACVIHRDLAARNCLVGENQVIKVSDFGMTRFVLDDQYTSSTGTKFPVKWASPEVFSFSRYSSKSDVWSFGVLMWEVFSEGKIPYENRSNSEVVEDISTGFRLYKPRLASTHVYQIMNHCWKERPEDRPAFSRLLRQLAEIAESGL

[20] = test system: PC3MM2; test: Antitumor activity against human PC3MM2 cells xenografted in female nude mouse model assessed as reduction in P-AKT at T308 level at 50 mg/kg, iv administered once a week and measured at least 8 hrs by immunoblot analysis; type: functional, organism-based
[21] = target: Tyrosine-protein kinase Fes/Fps (Homo sapiens) (UniProt P07332); test: Inhibition of recombinant human full-length His-tagged FES expressed in baculovirus expression system at 2 uM using Tyr 01 as substrate measured after 1 hr by Z'-LYTE assay relative to control
[22] = test system: Fibroblast growth factor receptor 3 (Homo sapiens), P22607 [K650E]; test: Inhibition of recombinant human His-tagged FGFR3 FGFR3 K650E mutant (398-806 residues) expressed in baculovirus expression system at 2 uM using Tyr 04 as substrate measured after 1 hr by Z'-LYTE assay relative to control
Fibroblast growth factor receptor 3 (Homo sapiens), P22607 [K650E], sequence (P22607 whole entry K650E, the tested form may be a part): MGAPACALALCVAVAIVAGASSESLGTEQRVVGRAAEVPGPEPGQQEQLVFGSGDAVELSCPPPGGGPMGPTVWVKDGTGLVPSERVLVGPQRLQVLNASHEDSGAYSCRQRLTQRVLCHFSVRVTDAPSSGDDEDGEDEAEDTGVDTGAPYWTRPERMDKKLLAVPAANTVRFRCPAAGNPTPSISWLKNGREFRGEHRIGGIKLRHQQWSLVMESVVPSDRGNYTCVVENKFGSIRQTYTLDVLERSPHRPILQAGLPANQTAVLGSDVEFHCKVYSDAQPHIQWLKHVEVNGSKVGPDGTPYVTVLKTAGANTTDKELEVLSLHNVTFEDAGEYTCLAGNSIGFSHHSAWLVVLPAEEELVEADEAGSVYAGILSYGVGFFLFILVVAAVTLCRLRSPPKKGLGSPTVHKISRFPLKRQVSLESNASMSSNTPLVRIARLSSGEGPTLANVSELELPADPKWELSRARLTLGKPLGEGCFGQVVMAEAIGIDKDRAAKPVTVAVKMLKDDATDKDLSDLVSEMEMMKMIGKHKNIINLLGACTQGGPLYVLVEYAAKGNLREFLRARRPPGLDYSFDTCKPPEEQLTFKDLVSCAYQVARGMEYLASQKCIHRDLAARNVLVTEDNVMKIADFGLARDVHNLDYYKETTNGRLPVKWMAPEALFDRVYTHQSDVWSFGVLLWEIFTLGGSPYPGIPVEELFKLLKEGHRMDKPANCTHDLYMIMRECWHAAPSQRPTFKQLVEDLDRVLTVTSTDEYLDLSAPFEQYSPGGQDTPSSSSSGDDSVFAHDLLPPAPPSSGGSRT

[23] = test system: Epidermal growth factor receptor (Homo sapiens), P00533 [T790M]; test: Inhibition of recombinant human GST-tagged EGFR T790M mutant (668-1210 residues) expressed in insect cells at 2 uM using Tyr 04 as substrate measured after 1 hr by Z'-LYTE assay relative to control; settings: Insect cell
[24] = target: Vascular endothelial growth factor receptor 3 (Homo sapiens) (UniProt P35916); test: Inhibition of recombinant human GST-tagged FLT4 (800-1297 residues) expressed in insect cells at 2 uM using Tyr 04 as substrate measured after 1 hr by Z'-LYTE assay relative to control; settings: Insect cell
[25] = test system: MDA-MB-361; test: Antitumor activity against human MDA-MB-361 cells assessed as block the hypoxia-induced lactate production in low oxygen at 0.3 micromol/L incubated for 24 hrs; type: functional, cell-based; settings: dose 0.3 µmol/L
[26] = target: Tyrosine-protein kinase BTK (Homo sapiens) (UniProt Q06187); test: Inhibition of recombinant human full-length His-tagged BTK expressed in insect cells at 2 uM using Tyr 01 as substrate measured after 1 hr by Z'-LYTE assay relative to control; settings: Insect cell

**Q.** Which inhibition [1] does the source give for `CNC(=O)Nc1ccc(-c2nc(N3CC4CCC(C3)O4)c3cnn(C4CCC5(CC4)OCCO5)c3n2)cc1` here?
**A.** 1%

**Q.** What about the inhibition at 2 µM [2] of the same compound?
**A.** 5%

**Q.** What about the inhibition [3] of the same compound?
**A.** 14%

**Q.** And the inhibition [4]?
**A.** 11%

**Q.** And the inhibition [5]?
**A.** -1%

**Q.** What about the Activity [6] of the same compound?
**A.** Active

**Q.** What about the inhibition at 1 µM [7] of the same compound?
**A.** ~50%

**Q.** And the IC50 [8]?
**A.** 2 nM

**Q.** And the inhibition [9]?
**A.** 2%

**Q.** And the inhibition [10]?
**A.** 1%

**Q.** What about the inhibition [11] of the same compound?
**A.** -4%

**Q.** What about the Activity [12] of the same compound?
**A.** 100%

**Q.** What about the IC50 [13] of the same compound?
**A.** 25 nM

**Q.** What about the inhibition [14] of the same compound?
**A.** 0%

**Q.** What about the inhibition [15] of the same compound?
**A.** 11%

**Q.** What about the inhibition [16] of the same compound?
**A.** 1%

**Q.** And the inhibition [17]?
**A.** 3%

**Q.** And the inhibition [18]?
**A.** Active

**Q.** And the inhibition [19]?
**A.** 2%

**Q.** And the Activity [20]?
**A.** inactive

**Q.** And the inhibition [21]?
**A.** -1%

**Q.** What about the inhibition [22] of the same compound?
**A.** 6%

**Q.** And the inhibition [23]?
**A.** 2%

**Q.** And the inhibition [24]?
**A.** 4%

**Q.** What about the Activity [25] of the same compound?
**A.** Active

**Q.** And the inhibition [26]?
**A.** 3%

— ChEMBL document CHEMBL5696439 (Cancer Res, 2010)
